Key:
[1] = tested on: KB cell line; experiment: MTT toxicity assay, small molecule delivery to cultured cells (KB)
Description: (§1) Media containing doxorubicin and doxorubicin/CD-polymer complexes at various concentrations were applied to cultured cell lines. After 5 hours, the media was removed and replaced with fresh media. […] ([…], “Culture of Animal Cells”, 3rd ed., Wiley-Liss: New York (1994)). […] For receptor-mediated delivery, a ligand such a folate is covalently attached to the CD-polymer used for doxorubicin complexation.

[2] = tested on: KB-VI (a multidrug resistant derivative of KB) cell line; experiment: MTT toxicity assay, small molecule delivery to cultured cells (KB-VI)
Description: as §1

[3] = pH 7.1; Husain et al., Applied Spectroscopy 1992; cited from earlier work
[4] = Homo sapiens, KB, 5 h, read-out: IC50 (μM of doxorubicin)

COc1cccc2c1C(=O)c1c(O)c3c(c(O)c1C2=O)C[C@@](O)(C(=O)CO)C[C@@H]3O[C@H]1C[C@H](N)[C@H](O)[C@H](C)O1 [doxorubicin]
IC50 [1, 4]: ~0.1 µM
IC50 [2, 4]: ~10 µM

OC[C@H]1O[C@@H]2O[C@H]3[C@H](O)[C@@H](O)[C@@H](O[C@H]4[C@H](O)[C@@H](O)[C@@H](O[C@H]5[C@H](O)[C@@H](O)[C@@H](O[C@H]6[C@H](O)[C@@H](O)[C@@H](O[C@H]7[C@H](O)[C@@H](O)[C@@H](O[C@H]8[C@H](O)[C@@H](O)[C@@H](O[C@H]1[C@H](O)[C@H]2O)O[C@@H]8CO)O[C@@H]7CO)O[C@@H]6CO)O[C@@H]5CO)O[C@@H]4CO)O[C@@H]3CO [β-CD, β-cyclodextrin]
Association constant between β-CD and doxorubicin [3]: 210 M⁻¹

β-cyclodextrin(cystamine)-DTBP Copolymer [Copolymer 15]
Toxicity to KB cells in the absence of doxorubicin [1]: not toxic
Toxicity to KB-VI cells in the absence of doxorubicin [2]: not toxic
